The structures appear in SMILES notation.

For this assay, the target named is recombinant GST-tagged MDM2 / p53 peptide (Homo sapiens, UniProt Q00987). Kind of assay: HTRF assay of inhibition of the p53-MDM2 interaction. In kind it is binding. The settings on record: GST-MDM2 and biotinylated p53 peptide, 37° C. 1 h. Here is the method:
The ability of the compounds to inhibit the interaction between p53 and MDM2 proteins was measured by an HTRF (homogeneous time-resolved fluorescence) assay in which recombinant GST-tagged MDM2 binds to a peptide that resembles the MDM2-interacting region of p53 (Lane et al.). Binding of GST-MDM2 protein and p53-peptide (biotinylated on its N-terminal end) is registered by the FRET (fluorescence resonance energy transfer) between Europium (Eu)-labeled anti-GST antibody and streptavidin-conjugated Allophycocyanin (APC).
Test is performed in black flat-bottom 384-well plates (Costar) in a total volume of […] containing:90 nM biotinylate peptide, 160 ng/ml GST-MDM2, 20 nM streptavidin-APC (PerkinElmerWallac), 2 nM Eu-labeled anti-GST-antibody (PerkinElmerWallac), 0.2% bovine serum albumin (BSA), 1 mM dithiothreitol (DTT) and 20 mM […] (TBS) buffer as follows: Add 10 uL of GST-MDM2 (640 ng/ml working solution) in reaction buffer to each well. Add 10 uL diluted compounds (1:5 dilution in reaction buffer) to each well, mix by shaking. Add 20 uL biotinylated p53 peptide (180 nM working solution) in reaction buffer to each well and mix on shaker. Incubate at 37° C. for 1 h. Add 20 uL streptavidin-APC and Eu-anti-GST antibody mixture (6 nM Eu-anti-GST and 60 nM streptavidin-APC working solution) in TBS buffer with 0.2% BSA, shake at room temperature for 30 minutes and read using a TRF-capable plate reader at 665 and 615 nm (Victor 5, Perkin ElmerWallac). If not specified, the reagents were purchased from Sigma Chemical Co.
In general terms: TR-FRET usually uses a lanthanide donor and a delayed reading to cut background.

Chain of recombinant GST-tagged MDM2 / p53 peptide (Q00987 whole entry): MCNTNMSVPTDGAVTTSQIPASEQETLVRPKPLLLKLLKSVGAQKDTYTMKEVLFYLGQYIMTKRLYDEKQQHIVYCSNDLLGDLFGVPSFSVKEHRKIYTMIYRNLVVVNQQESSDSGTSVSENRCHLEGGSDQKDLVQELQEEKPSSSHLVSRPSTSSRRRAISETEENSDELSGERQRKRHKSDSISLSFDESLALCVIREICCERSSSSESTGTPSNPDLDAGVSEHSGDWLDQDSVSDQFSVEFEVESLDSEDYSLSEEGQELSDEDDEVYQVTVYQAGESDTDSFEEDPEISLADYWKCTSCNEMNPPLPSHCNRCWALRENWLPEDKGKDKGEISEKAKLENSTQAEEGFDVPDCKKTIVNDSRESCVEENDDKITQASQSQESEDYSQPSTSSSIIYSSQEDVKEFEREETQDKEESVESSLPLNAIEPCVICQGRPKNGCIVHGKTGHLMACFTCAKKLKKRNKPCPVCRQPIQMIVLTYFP

The IC50 is the concentration that inhibits the measured activity by half. In the case of `CCOc1cc(C(F)(F)F)ccc1C1=NC(c2ccc(Cl)cc2)C(c2ccc(Cl)cc2)N1C(=O)N1CCN(S(=O)(=O)C(C)C)CC1` (centres unmarked) [Example 6, [4,5-Bis-(4-chloro-phenyl)-2-(2-ethoxy-4-trifluoromethyl-phenyl)-4,5-dihydro-imidazol-1-yl]-[4-(propane-2-sulfonyl)-piperazin-1-yl]-methanone], the concentration for half-maximal inhibition (IC50) came out at 0.1 µM.

As to `CCOc1cc(C(F)(F)F)ccc1C1=NC(c2ccc(Cl)cc2)C(c2ccc(Cl)cc2)N1C(=O)N(C)c1ccccn1` (centres unmarked) [Example 36, 4,5-Bis-(4-chloro-phenyl)-2-(2-ethoxy-4-trifluoromethyl-phenyl)-4,5-dihydro-imidazole-1-carboxylic acid methyl-pyridin-2-yl-amide], the IC50 came out at 4.26 µM.

With `CCOc1cc(C(F)(F)F)ccc1C1=NC(c2ccc(Cl)cc2)C(c2ccc(Cl)cc2)N1C(=O)N1CCC(n2c(=O)[nH]c3ccccc32)CC1` (centres unmarked) [Example 26, 1-{1-[4,5-Bis-(4-chloro-phenyl)-2-(2-ethoxy-4-trifluoromethyl-phenyl)-4,5-dihydro-imidazole-1-carbonyl]-piperidin-4-yl}-1,3-dihydro-benzoimidazol-2-one], the half-inhibitory concentration (IC50) worked out at 0.8 µM.

On to `CCOc1cc(C(F)(F)F)ccc1C1=NC(c2ccc(Cl)cc2)C(c2ccc(Cl)cc2)N1C(=O)N1CCC(C(=O)OC)CC1` (centres unmarked) [Example 16, 1-[4,5-Bis-(4-chloro-phenyl)-2-(2-ethoxy-4-trifluoromethyl-phenyl)-4,5-dihydro-imidazole-1-carbonyl]-piperidine-4-carboxylic acid methyl ester], for which the IC50 turned out to be 1.74 µM.

As to `CCOc1cc(C(F)(F)F)ccc1C1=NC(c2ccc(Cl)cc2)C(c2ccc(Cl)cc2)N1C(=O)N1CCC(NCC(=O)N(C)CCC#N)CC1` (centres unmarked) [Example 176, 2-{1-[4,5-Bis-(4-chloro-phenyl)-2-(2-ethoxy-4-trifluoromethyl-phenyl)-4,5-dihydro-imidazole-1-carbonyl]-piperidin-4-ylamino}-N-(2-cyano-ethyl)-N-methyl-acetamide], the IC50 amounted to 0.021 µM.

For the origin of these results see patent US7425638B2, “Cis-imidazolines” (Hoffmann-La Roche Inc., priority 2003, dated 2008).
